The values below are quoted from earlier work in US20130202712A1, “Compositions And Methods For Treating Or Preventing Immuno-Inflammatory Disease” (VINDICO NANOBIO TECHNOLOGY, INC., priority 2010, published 2013).

For this data set the following is noted: free resveratrol.

As to `Oc1ccc(C=Cc2cc(O)cc(O)c2)cc1` [resveratrol, 3,5,4′-trihydroxystilbene], the Solubility in water result was “very low solubility in water”.
